Measured values taken from ChEMBL document CHEMBL6092180 (Eur J Med Chem, 2024).
≈ marks a conversion by molar mass, not a printed value.

What was measured:
Format in all cases: functional
Candida albicans [1] = test: Antifungal activity against Candida albicans SC5314 assessed as inhibition of fungal growth by CLSI M27-A3 guidelines based method
Candida albicans [2] = test: Antifungal activity against Candida albicans GIM 2.194 assessed as inhibition of fungal growth by CLSI M27-A3 guidelines based method
Candida tropicalis = test: Antifungal activity against Candida tropicalis GIM 2.183 assessed as inhibition of fungal growth by CLSI M27-A3 guidelines based method
Candida parapsilosis = test: Antifungal activity against Candida parapsilosis GIM 2.190 assessed as inhibition of fungal growth by CLSI M27-A3 guidelines based method; settings: Lodderomyces parapsilosis
Nakaseomyces glabratus = test: Antifungal activity against Candida glabrata assessed as inhibition of fungal growth by CLSI M27-A3 guidelines based method
Pichia kudriavzevii = test: Antifungal activity against Candida krusei GIM 2.1 assessed as inhibition of fungal growth by CLSI M27-A3 guidelines based method
Cryptococcus neoformans = test: Antifungal activity against Cryptococcus neoformans CGMCC 2.3161 assessed as inhibition of fungal growth by CLSI M27-A3 guidelines based method

Compound	MIC80 (Candida albicans [1]) [µg/mL]	MIC80 (Candida albicans [2]) [µg/mL]	MIC80 (Candida tropicalis) [µg/mL]	MIC80 (Candida parapsilosis) [µg/mL]	MIC80 (Nakaseomyces glabratus) [µg/mL]	MIC80 (Pichia kudriavzevii) [µg/mL]	MIC80 (Cryptococcus neoformans) [µg/mL]
C[C@@H](N(C)Cc1ccc(C#Cc2ccc(C(F)(F)F)cc2)cc1)[C@](O)(Cn1cncn1)c1ccc(F)cc1F	0.025 (≈ 0.0463 µM)	0.05 (≈ 0.0925 µM)	0.013 (≈ 0.0241 µM)	0.013 (≈ 0.0241 µM)	0.05 (≈ 0.0925 µM)	0.1 (≈ 0.185 µM)	0.05 (≈ 0.0925 µM)
C[C@@H](N(C)Cc1ccc(C#Cc2ccc(OC(F)(F)F)cc2)cc1)[C@](O)(Cn1cncn1)c1ccc(F)cc1F	0.05 (≈ 0.0898 µM)	0.05 (≈ 0.0898 µM)	0.013 (≈ 0.0234 µM)	0.013 (≈ 0.0234 µM)	0.03 (≈ 0.0539 µM)	0.8 (≈ 1.44 µM)	0.05 (≈ 0.0898 µM)
CN(Cc1ccc(C#Cc2cc(F)c(F)cc2F)cc1)CC(O)(Cn1cncn1)c1ccc(F)cc1F (stereo not given)	0.006 (≈ 0.0117 µM)	0.006 (≈ 0.0117 µM)	0.006 (≈ 0.0117 µM)	0.006 (≈ 0.0117 µM)	0.01 (≈ 0.0195 µM)	0.03 (≈ 0.0585 µM)	0.013 (≈ 0.0254 µM)
CN(Cc1ccc(C#Cc2ccccc2I)cc1)CC(O)(Cn1cncn1)c1ccc(F)cc1F (stereo not given)	0.013 (≈ 0.0222 µM)	0.006 (≈ 0.0103 µM)	0.006 (≈ 0.0103 µM)	0.006 (≈ 0.0103 µM)	1.6 (≈ 2.74 µM)	0.8 (≈ 1.37 µM)	0.025 (≈ 0.0428 µM)
CN(Cc1ccc(C#Cc2cc(F)c(Cl)cc2F)cc1)CC(O)(Cn1cncn1)c1ccc(F)cc1F (stereo not given)	0.006 (≈ 0.0113 µM)	0.006 (≈ 0.0113 µM)	0.006 (≈ 0.0113 µM)	0.006 (≈ 0.0113 µM)	0.01 (≈ 0.0189 µM)	0.01 (≈ 0.0189 µM)	0.025 (≈ 0.0473 µM)
CN(Cc1ccc(C#Cc2ccc(-c3ccccc3)cc2)cc1)CC(O)(Cn1cncn1)c1ccc(F)cc1F (stereo not given)	0.05 (≈ 0.0935 µM)	0.013 (≈ 0.0243 µM)	0.05 (≈ 0.0935 µM)	0.05 (≈ 0.0935 µM)	0.4 (≈ 0.748 µM)	0.2 (≈ 0.374 µM)	0.05 (≈ 0.0935 µM)
CN(Cc1ccc(C#Cc2ccc(Br)c(F)c2)cc1)CC(O)(Cn1cncn1)c1ccc(F)cc1F (stereo not given)	0.006 (≈ 0.0108 µM)	0.006 (≈ 0.0108 µM)	0.006 (≈ 0.0108 µM)	0.006 (≈ 0.0108 µM)	0.03 (≈ 0.054 µM)	0.01 (≈ 0.018 µM)	0.025 (≈ 0.045 µM)
CN(Cc1ccc(C#Cc2ncccn2)cc1)CC(O)(Cn1cncn1)c1ccc(F)cc1F (stereo not given)	0.025 (≈ 0.0543 µM)	0.05 (≈ 0.109 µM)	0.025 (≈ 0.0543 µM)	0.025 (≈ 0.0543 µM)	3.2 (≈ 6.95 µM)	1.6 (≈ 3.47 µM)	0.8 (≈ 1.74 µM)
CN(Cc1ccc(C#Cc2ccc(C(C)(C)C)cc2)cc1)CC(O)(Cn1cncn1)c1ccc(F)cc1F (stereo not given)	0.025 (≈ 0.0486 µM)	0.025 (≈ 0.0486 µM)	0.025 (≈ 0.0486 µM)	0.013 (≈ 0.0253 µM)	0.8 (≈ 1.55 µM)	0.4 (≈ 0.777 µM)	0.05 (≈ 0.0972 µM)
CN(Cc1ccc(C#Cc2ccc(C(F)(F)F)cc2)cc1)CC(O)(Cn1cncn1)c1ccc(F)cc1F (stereo not given)	0.1 (≈ 0.19 µM)	0.025 (≈ 0.0475 µM)	0.05 (≈ 0.095 µM)	0.1 (≈ 0.19 µM)	0.2 (≈ 0.38 µM)	0.2 (≈ 0.38 µM)	0.05 (≈ 0.095 µM)
CN(Cc1ccc(C#Cc2cccc(Cl)c2)cc1)CC(O)(Cn1cncn1)c1ccc(F)cc1F (stereo not given)	0.013 (≈ 0.0264 µM)	0.006 (≈ 0.0122 µM)	0.013 (≈ 0.0264 µM)	0.006 (≈ 0.0122 µM)	0.2 (≈ 0.406 µM)	0.01 (≈ 0.0203 µM)	0.013 (≈ 0.0264 µM)
CN(Cc1ccc(C#Cc2cccnc2)cc1)CC(O)(Cn1cncn1)c1ccc(F)cc1F (stereo not given)	0.013 (≈ 0.0283 µM)	0.025 (≈ 0.0544 µM)	0.013 (≈ 0.0283 µM)	0.05 (≈ 0.109 µM)	0.8 (≈ 1.74 µM)	0.2 (≈ 0.435 µM)	0.05 (≈ 0.109 µM)
CN(Cc1ccc(C#Cc2cccc(I)c2)cc1)CC(O)(Cn1cncn1)c1ccc(F)cc1F (stereo not given)	0.05 (≈ 0.0856 µM)	0.05 (≈ 0.0856 µM)	0.025 (≈ 0.0428 µM)	0.025 (≈ 0.0428 µM)	3.2 (≈ 5.48 µM)	3.2 (≈ 5.48 µM)	0.025 (≈ 0.0428 µM)
CCOC(=O)c1ccc(C#Cc2ccc(CN(C)CC(O)(Cn3cncn3)c3ccc(F)cc3F)cc2)cc1 (stereo not given)	0.013 (≈ 0.0245 µM)	0.013 (≈ 0.0245 µM)	0.013 (≈ 0.0245 µM)	0.006 (≈ 0.0113 µM)	0.1 (≈ 0.188 µM)	0.2 (≈ 0.377 µM)	0.025 (≈ 0.0471 µM)
Cc1cccc(C#Cc2ccc(CN(C)CC(O)(Cn3cncn3)c3ccc(F)cc3F)cc2)c1 (stereo not given)	0.013 (≈ 0.0275 µM)	0.013 (≈ 0.0275 µM)	0.025 (≈ 0.0529 µM)	0.013 (≈ 0.0275 µM)	0.4 (≈ 0.846 µM)	0.8 (≈ 1.69 µM)	0.025 (≈ 0.0529 µM)
CC(=O)c1ccc(C#Cc2ccc(CN(C)CC(O)(Cn3cncn3)c3ccc(F)cc3F)cc2)cc1 (stereo not given)	0.006 (≈ 0.012 µM)	0.006 (≈ 0.012 µM)	0.006 (≈ 0.012 µM)	0.006 (≈ 0.012 µM)	0.03 (≈ 0.0599 µM)	0.03 (≈ 0.0599 µM)	0.006 (≈ 0.012 µM)
CC(C)c1ccc(C#Cc2ccc(CN(C)CC(O)(Cn3cncn3)c3ccc(F)cc3F)cc2)cc1 (stereo not given)	0.013 (≈ 0.026 µM)	0.025 (≈ 0.0499 µM)	0.013 (≈ 0.026 µM)	0.05 (≈ 0.0999 µM)	0.1 (≈ 0.2 µM)	0.2 (≈ 0.4 µM)	0.025 (≈ 0.0499 µM)
CN(Cc1ccc(C#Cc2ccccc2Cl)cc1)CC(O)(Cn1cncn1)c1ccc(F)cc1F (stereo not given)	0.013 (≈ 0.0264 µM)	0.006 (≈ 0.0122 µM)	0.013 (≈ 0.0264 µM)	0.006 (≈ 0.0122 µM)	0.8 (≈ 1.62 µM)	0.03 (≈ 0.0609 µM)	0.013 (≈ 0.0264 µM)
CN(Cc1ccc(C#Cc2cccc(Br)c2)cc1)CC(O)(Cn1cncn1)c1ccc(F)cc1F (stereo not given)	0.025 (≈ 0.0465 µM)	0.006 (≈ 0.0112 µM)	0.013 (≈ 0.0242 µM)	0.006 (≈ 0.0112 µM)	0.8 (≈ 1.49 µM)	0.2 (≈ 0.372 µM)	0.013 (≈ 0.0242 µM)
CN(Cc1ccc(C#Cc2ccc(Cl)cc2F)cc1)CC(O)(Cn1cncn1)c1ccc(F)cc1F (stereo not given)	0.006 (≈ 0.0117 µM)	0.006 (≈ 0.0117 µM)	0.006 (≈ 0.0117 µM)	0.006 (≈ 0.0117 µM)	0.03 (≈ 0.0587 µM)	0.01 (≈ 0.0196 µM)	0.025 (≈ 0.0489 µM)
